{
  "source": "patent US9844560B2",
  "about": "“Use of ginsenoside M1 for treating lupus nephritis” (priority 2014, dated 2017)",
  "type_in_all_cases": "in vivo, NZB/W F1 mice",
  "key": {"[1]": {"system": "serum inflammatory cytokines", "assay": "Serum cytokine detection (Cytometric Bead Array) in ASLN mice", "conditions": "vs ASLN group", "procedure": "(§1) An accelerated severe lupus nephritis (ASLN) mouse model was established in 8-week-old female NZB/W F1 mice by twice weekly intraperitoneal injection of lipopolysaccharide (LPS, 20 mg/kg body weight) (Sigma, NO, USA) as described in Shui et al., 2007 [51]. Two days after first dose of LPS for the ASLN induction, the mice were divided into two groups of more than 6 mice each and daily administrated with ginsenoside M1 or vehicle (normal saline) via oral gavage till mice sacrificed. 8-Week-old NZB/W F1 female mice (prior to onset of autoantibody production), injected with normal saline, were used as normal controls. All mice were killed at week 5 after disease induction. The tissue specimens of spleen, renal cortical tissue, blood, and urine were collected at the indicated times and stored appropriately before analysis.\nTo detect the level of IFN-γ, MCP-1, IL-12 p70, IL-6, TNF-α and IL-10 in serum by using BD Cytometric Bead Array Mouse Inflammation kit (BD Biosciences), according to the standard protocol, followed by flow cytometry (BD Biosciences)."}, "[2]": {"system": "renal ROS production", "assay": "Reactive oxygen species (superoxide anion, DHE labeling) in kidney of ASLN mice", "procedure": "as §1\nKidney in situ superoxide anion production was determined by dihydroethidium (DHE) labeling. Fluorescent images were quantified by counting the percentage of positive nuclei in the total nuclei per kidney cross-section. Superoxide anion levels in serum and kidney tissues were measured as described previously and the results expressed as reactive luminescence units (RLU) per 15 min per milligram dry weight (i.e., RLU/15 min/mg dry weight)."}, "[3]": {"system": "Toll-like receptor (TLR)7 gene expression", "assay": "Real-time RT-PCR of renal cortex TLR7 mRNA in ASLN mice", "conditions": "normalized to GAPDH, vs ASLN group, p<0.01, FIG. 7", "procedure": "as §1\nRenal cortex RNA was extracted using TRIzol reagent (Invitrogen) according to the manufacturer's instructions, and real-time reverse transcription-polymerase chain reaction (RT-PCR) was used to measure Toll-like receptor (TLR)7 gene expression. Real-time quantification was performed using a Bio-Rad iCycler iQ system according to the manufacturer's instructions. Amplifications were normalized to the values for GAPDH using the 2^−ΔCt method."}, "[4]": {"system": "anti-dsDNA antibodies", "assay": "Serum anti-dsDNA antibodies (ELISA) in ASLN mice", "conditions": "vs ASLN group, p<0.01, FIG. 3", "procedure": "as §1\nSerum levels of anti-dsDNA antibodies were measured using an anti-mouse dsDNA enzyme-linked immunosorbent assay (ELISA) kit (Alpha Diagnostic, TX, USA) according to the manufacturer's instructions. The absorbance at 450 nm was measured using an ELISA plate reader (Bio-Tek, VT, USA)."}, "[5]": {"system": "T cells in splenocytes", "assay": "T cell proliferation in splenocytes of ASLN mice (3H-methyl thymidine)", "conditions": "anti-CD3 stimulated splenocytes, vs ASLN group, p<0.01, FIG. 6", "procedure": "as §1\nSplenocytes from the mice were prepared as described previously, then were cultured in triplicate in wells (2.5×10^5 cells/well) in 96-well flat-bottom microtiter plates previously coated overnight at 4° C. with 0.25 μg/ml anti-mouse CD3 (145-2C11) antibodies (BD Biosciences). After 48 h, the cultures were pulsed with […] of ^3H-methyl thymidine (Amersham Pharmacia Biotech, Piscataway, N.J.) and harvested 16-18 h later, and the incorporated ^3H-methyl thymidine was measured using a Top Count (Packard, PerkinElmer, Boston, Mass.) as described previously."}, "[6]": {"system": "accelerated severe lupus nephritis (ASLN) mouse model", "assay": "Urine protein, hematuria and renal function in ASLN mouse model", "procedure": "as §1, with “analysis. Urine samples were collected in metabolic cages every week and urine protein levels were measured, and serum samples were collected to measure serum levels of blood urea nitrogen (BUN) and creatinine (Cr) as described previously (Ka, S. M. et al. Decoy receptor 3 ameliorates an autoimmune crescentic glomerulonephritis model in mice. J Am Soc Nephrol 18:2473-2485; 2007).” for “analysis.”"}, "[7]": {"system": "accelerated severe lupus nephritis (ASLN) mouse model", "assay": "Renal histopathology (H&E) in ASLN mouse model", "conditions": "ASLN mice, H&E light microscopy, FIG. 2", "procedure": "as §1, with “The tissue specimens of spleen, renal cortical tissue, blood, and urine were collected at the indicated times and stored appropriately before analysis.” left out\nRenal tissues were formalin-fixed, embedded in paraffin, and sections (3 μm) prepared and stained with hematoxylin and eosin (H&E) for renal histopathology as described previously. Quantitative analysis was performed by optical microscopy (Olympus BX51, Reflected Fluorescence System, Japan). The examination of renal pathology and scoring were performed in a blinded manner by a pathologist, and the severity of renal lesions was scored. The percentage of glomeruli showing proliferation, neutrophil infiltration, crescent formation, fibrinoid necrosis, and periglomerular inflammation was calculated from at least 100 randomly sampled glomeruli."}},
  "data": [
    {"smiles": "CC(C)=CCC[C@](C)(O[C@@H]1OC(CO)[C@@H](O)[C@@H](O)C1O)[C@H]1CC[C@]2(C)C1[C@H](O)CC1[C@@]3(C)CC[C@H](O)C(C)(C)C3CC[C@]12C", "note": "(stereo partly drawn) [ginsenoside M1, 20-O-β-D-glucopyranosyl-20(S)-protopanaxadiol]", "values": [
      {"measurement": "serum MCP-1", "setting": "[1]; p<0.005, FIG. 5B", "value": "significantly decreased"},
      {"measurement": "serum IL-12 p70", "setting": "[1]; p<0.005, FIG. 5C", "value": "significantly decreased"},
      {"measurement": "serum IL-6", "setting": "[1]; p<0.005, FIG. 5D", "value": "significantly decreased"},
      {"measurement": "serum TNFα", "setting": "[1]; p<0.005, FIG. 5E", "value": "significantly decreased"},
      {"measurement": "serum IL-10", "setting": "[1]; p<0.005, FIG. 5F", "value": "significantly decreased"},
      {"measurement": "serum IFN-γ", "setting": "[1]; p<0.01, FIG. 5A", "value": "significant decreased"},
      {"measurement": "renal ROS production (superoxide anion levels in renal tissues)", "setting": "[2]; vs ASLN group, p<0.01, FIG. 4A", "value": "significantly decreased"},
      {"measurement": "DHE fluorescence intensity (in situ ROS production in kidney)", "setting": "[2]; week 3, FIGS. 4B and 4C", "value": "very low"},
      {"measurement": "DHE fluorescence intensity (in situ ROS production in kidney)", "setting": "[2]; week 5, FIGS. 4B and 4C", "value": "very low"},
      {"measurement": "renal mRNA levels of TLR7", "setting": "[3]", "value": "significantly decreased"},
      {"measurement": "serum anti-dsDNA antibody level", "setting": "[4]", "value": "significantly decreased"},
      {"measurement": "proliferation of T cells in splenocytes", "setting": "[5]", "value": "significant decreased"},
      {"measurement": "serum level of BUN", "setting": "[6]; ASLN mice, daily oral gavage, vs ASLN group, p<0.05, FIG. 1C", "value": "significantly decreased"},
      {"measurement": "serum level of creatinine", "setting": "[6]; ASLN mice, daily oral gavage, vs ASLN group, p<0.05, FIG. 1D", "value": "significantly decreased"},
      {"measurement": "proteinuria (urine albumin/creatinine ratio)", "setting": "[6]; ASLN mice, daily oral gavage, vs ASLN group, FIG. 1A", "value": "significantly decreased"},
      {"measurement": "hematuria", "setting": "[6]; ASLN mice, daily oral gavage, vs ASLN group, FIG. 1B", "value": "significantly decreased"},
      {"measurement": "development of lupus nephritis (overall conclusion)", "setting": "[6]; summary of the ASLN mouse study", "value": "effective in preventing development of lupus nephritis"},
      {"measurement": "renal lesions (neutrocyte infiltration, crescent-like formation, periglomerular inflammation, tubular atrophy, proteinaceous casts, fibrinoid necrosis)", "setting": "[7]; vs ASLN+vehicle, all p<0.005", "value": "greatly decreased"},
      {"measurement": "glomerular proliferation", "setting": "[7]", "value": "mild glomerular proliferation was present"}
    ]}
  ]
}
